Laboratory results published in patent publication US20050234103A1, “Crystalline forms of rabeprazole sodium” (priority 2002, published 2005).

Conditions: as compared to prazoles such as panto prazole sodium and omeprazole sodium

## COCCCOc1ccnc(C[S+]([O-])c2nc3ccccc3[n-]2)c1C.[Na+] (stereo not shown) [Form X, 2-[[[4-(3-methoxypropoxy)-3-methyl-2-pyridinyl]-methyl]sulfinyl]-1H-benzimidazole sodium]
  chemical stability such as thermo stability and light stability: better chemical stability
